# In patent publication US5658906A, “Cysteine protease and serine protease inhibitors” (Cephalon, Inc., priority 1996, dated 1997):
# What was measured:
# [1] = molecular target: T1, Cathepsin L (Homo sapiens, UniProt P07711); assay: Inhibition and rate of inactivation of cathepsin L (Cbz-Phe-Arg-AMC hydrolysis); format: biochemical; conditions: pH 6.0, 0.006 mM substrate, read-out: k2 (second order rate constant of inactivation), B = Cathepsin L
# T1 construct: purchased Calbiochem 219402
# Protocol: Additionally, the order of reagents added to the plate was altered because both enzymes are constitutively active. Following inhibitor addition to the plates appropriate 2× concentrated stock dilutions of the enzyme preparations were made in assay buffer and 100 ul added to each well. The assay was initiated by addition of 100 ul of 2× concentrated stock dilution of substrate in assay buffer. Substrate hydrolysis was monitored using a Fluroskan II (ex=390 nm; em=460 nm).
# Inhibition of enzyme activity was calculated as the percent decrease in the rate of substrate hydrolysis in the presence of inhibitor (.upsilon.i) relative to the rate in its absence (.upsilon.o). Comparison between .upsilon.o and .upsilon.i was made within the linear range for substrate hydrolysis. For screening, compounds were tested at 10 μM. Compounds having ≥50% inhibition at 10 μM were considered active. Apparent second order rate constants were determined from analysis of reaction progress curves under pseudo-first order conditions. Each determination represents the mean of three or more independent single cuvette analyses continually monitored via a Perkin-Elmer LS50B spectrofluorimeter. The rate of inhibition of hydrolysis was obtained by fitting the curve to the exponential equation (1):
# y=Ae^-k.spsb.obs·t +B (1)
# where y (Pt) is the product formed at time t. A and B are constants. A, the amplitude of the reaction, is given by [Po -P.varies. ] and B (=P.varies.) is the maximal product formed when the reaction is […]. This was corrected for the presence of equation (2): […]
# [2] = system: calpain I in Molt-4 cells (α-spectrin breakdown products); assay: Inhibition of calpain activation in intact Molt-4 cells (calpain-generated spectrin breakdown products); format: cell-based; conditions: Homo sapiens, calcium and ionophore (ionomycin), read-out: % Inhibition of BDPs (10 μM)
# T1 sequence (P07711 114-333): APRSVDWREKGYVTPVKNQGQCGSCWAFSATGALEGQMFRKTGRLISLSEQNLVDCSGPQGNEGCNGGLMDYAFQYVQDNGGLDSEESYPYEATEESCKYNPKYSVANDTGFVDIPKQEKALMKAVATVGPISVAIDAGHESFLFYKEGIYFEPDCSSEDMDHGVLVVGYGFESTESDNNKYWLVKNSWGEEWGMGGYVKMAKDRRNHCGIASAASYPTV
Compound,kinact/KI [1] [M⁻¹ s⁻¹],inhibition at 10 µM [2] [%]
"CC(C)C[C@H](NC(=O)OCc1ccccc1)C(=O)N[C@@H](Cc1ccccc1)C(=O)COn1nnc2ccccc21 [Example 3, 1-[N-[N-Benzyloxycarbonyl-L-leucyl]-3S-4-phenyl-3-amino-2-oxobutyloxy]benzotriazole]",100000,67
"CC[C@H](NC(=O)[C@H](CC(C)C)NC(=O)OCc1ccccc1)C(=O)COn1nnc2ccccc21 [Example 5, 1-[N-[N-Benzyloxycarbonyl-L-leucyl]-3S-3-amino-2-oxopentyloxy] benzotriazole]",3e+06,56
"CC(C)C[C@H](NC(=O)OCc1ccccc1)C(=O)N[C@@H](Cc1ccccc1)C(=O)COn1nnc2cccnc21 [Example 6, 3-[N-[N-Benzyloxycarbonyl-L-leucyl]-3S-4-phenyl-3-amino-2-oxobutyloxy]-3H-triazolo[4,5-b]pyridine]",40000,63
"CC(C)C[C@H](NC(=O)OCc1ccccc1)C(=O)N[C@@H](Cc1ccccc1)C(=O)COn1nnc2ccccc2c1=O [Example 28, 1-[N-[N-Benzyloxycarbonyl-L-leucyl]-3S-4-phenyl-3-amino-2-oxobutyloxy]-3-benzotriazin-4-one]",70000,68
